Laboratory results as given in article PMC7146574, “Efficacy of a Novel ACE-Inhibitory Peptide from Sargassum maclurei in Hypertension and Reduction of Intracellular Endothelin-1” (Nutrients, 2020).
Residues, ends and D or L forms follow the SMILES beside them.

Columns and labels:
[1] = test system: spontaneously hypertensive rats (SHRs); experiment: Antihypertensive effect in vivo, tail-cuff method; design: species or system rat; settings: oral 50, 100 and 150 mg/kg body weight every day (Figure S3)
Procedure: Twenty male spontaneously hypertensive rats (SHRs; 11 weeks, 240 ± 20 g body weight) from Vital River Laboratory Animal Technology Co., Ltd. (Beijing, China) were randomly divided into five groups of four rats each: negative control, positive control, and high-, middle- and low- dosage groups. Normal diet and tap water were freely available. Rats in the high-, middle-, and low-dose groups were orally given the synthetic peptide (RWDISQPY) via gastric intubation at 150, 100, and 50 mg/kg/body weight once daily, respectively. Meanwhile, rats in the positive control were orally given captopril (14 mg/kg/body weight once daily), and rats in the negative control were just administrated saline (0.9%). The diastolic blood pressure (DBP) and systolic blood pressure (SBP) of the rats were measured by the tail-cuff method once a week. The heart rate was recorded simultaneously. The animal experiment was conducted in conformity with institutional guidelines for the care and use of laboratory animals in Shanxi Normal University (No. 20181003, 16 September 2018), Linfen, China. All of the rats received human care conforming to the National Institutes of Health Guide for Care and Use of Laboratory Animals (National Institute of Health Publication No. 85–23, revised).

[2] = test system: endothelin-1 (ET-1) in EA.hy926 cells; experiment: Effects on intracellular endothelin-1 (ET-1), ELISA of growth medium; type: cell-based, human; settings: captopril 1.0 mg/mL as comparison, 48 h
Procedure: In a humidified atmosphere with 5% CO2, the EA.hy926 cells (a permanent hybridoma of the human umbilical vein endothelial cells and human lung carcinoma cell line A549) grown in 96-well plates were cultured in DMEM containing non-essential amino acids (10 mg/mL), streptomycin (0.1 mg/mL), and fetal bovine serum (0.1 g/mL) at 37 °C [5]. The cells (1.0 × 10^5 cells mL^−1) were treated with the synthesized peptides (0.5–1.5 mg/mL) for 24 h, and then the MTT assay was used to measure the cytotoxicity levels of the peptides. Moreover, EA.hy926 cells seeded in another 96-well plate (1.0 × 10^5 cells mL^−1) were cultured in DMEM at 37 °C for 24 h, and then treated with synthesized peptides (1–2 mg/mL) for 48 h. After that, the ET-1 content of the growth medium in each well was quantified by the ET-1 Elisa kit according to the instructions. Cells in the blank group were not treated with samples, while the cells in the positive group were treated with captopril (1 mg/mL). The inhibition ability on ET-1 was calculated as follows:(1) Inhibition abliliy (%)=(CB−Cs)/CB×100% where CB was the ET-1 content of the growth medium in the blank group and CS was the ET-1 content of the growth medium treated with the samples.

ACE = test system: ACE; design: method as in 5 sources, ref 8, 38 = [8]; PMID 30893907; doi:10.3390/md17030179; 8. Sun S. Xu X. Sun X. Zhang X. Chen X. Xu N. Preparation and Identification of ACE Inhibitory Peptides from the Marine Macroalga Ulva intestinalis Mar. Drugs 2019 17 179 10.3390/md17030179 PMC6471128 || [38]; doi:10.1016/j.jff.2015.10.025; 38. Forghani B. Zarei M. Ebrahimpour A. Philip R. Bakar J. Abdul-Hamid A. Saari N. Purification and characterization of angiotensin converting enzyme-inhibitory peptides derived from Stichopus horrens ||| ref 5, 9 = [5]; PMID 31108740; doi:10.1016/j.foodres.2019.03.035; 5. Zhao Y. Zhang L. Tao J. Chi C. Wang B. Eight antihypertensive peptides from the protein hydrolysate of Antarctic krill ( Euphausia superba ): Isolation, identification, and activity evaluation on h || [9]; PMID 30229250; doi:10.1039/C8FO00569A; 9. Ling Y. Sun L.P. Zhuang Y.L. Preparation and identification of novel inhibitory angiotensin-I-converting enzyme peptides from tilapia skin gelatin hydrolysates: Inhibition kinetics and molecular do ||| ref 38, 40 = [38]; doi:10.1016/j.jff.2015.10.025; 38. Forghani B. Zarei M. Ebrahimpour A. Philip R. Bakar J. Abdul-Hamid A. Saari N. Purification and characterization of angiotensin converting enzyme-inhibitory peptides derived from Stichopus horrens || [40]; PMID 29606478; doi:10.1016/j.foodchem.2018.02.107; 40. Tu M. Wang C. Chen C. Zhang R. Liu H. Lu W. Jing L. Du M. Identification of a novel ACE-inhibitory peptide from casein and evaluation of the inhibitory mechanisms Food Chem. 2018 256 98 104 10.101 ||| ref 41, 28 = [41]; doi:10.1016/j.lwt.2018.12.059; 41. Bhaskar B. Ananthanarayana L. Jamdar S. Purification, identification, and characterization of novel angiotensin I converting enzyme (ACE) inhibitory peptides from alcalase digested horse gram flou || [28]; doi:10.1016/j.jff.2017.03.008; 28. Lin K. Zhang L. Han X. Cheng D.Y. Novel angiotensin I-converting enzyme inhibitory peptides from protease hydrolysates of Qula casein: Quantitative structure-activity relationship modeling and mol ||| ref 25 = [25]; doi:10.1016/j.lwt.2016.08.047; 25. Wang X. Chen H. Fu X. Li S. Wei J. A novel antioxidant and ACE inhibitory peptide from rice bran protein: Biochemical characterization and molecular docking study LWT Food Sci. Technol. 2017 75 93; settings: cited from earlier work; for IC50: literature comparison

CC[C@H](C)[C@H](NC(=O)[C@H](CC(=O)O)NC(=O)[C@H](Cc1c[nH]c2ccccc12)NC(=O)[C@@H](N)CCCNC(=N)N)C(=O)N[C@@H](CO)C(=O)N[C@@H](CCC(N)=O)C(=O)N1CCC[C@H]1C(=O)N[C@@H](Cc1ccc(O)cc1)C(N)=O [RWDISQPY] (H-RWDISQPY-NH2)
Effect on heart rate [1]: no side effect
Effect on normal increase in body weight [1]: no side effect

C[C@H](CS)C(=O)N1CCC[C@H]1C(=O)O [captopril]
Effect on ET-1 secretion [2]: reduce ET-1 secretion

FGMPLDR
IC50 (ACE): 219 µM

GSAGY [literature peptide identified from horrens protein]
IC50 (ACE): 706 µM

NMAINPSKENLCSTFCK
IC50 (ACE): 129 µM

PFPGPIPN
ACE inhibition pattern (ACE): competitive

QAGLSPVR
IC50 (ACE): 63.9 µM

QLLLQQ
ACE inhibition pattern (ACE): competitive

TVGMTAKF
ACE inhibition pattern (ACE): competitive

VSRHFASYAN
IC50 (ACE): 210 µM
